Consider 13 compounds from patent US20240368191A1, “HETEROCYCLIC COMPOUNDS AND USES THEREOF” (Kumquat Biosciences Inc., priority 2021, published 2024).

The series in a line: Metabolic (microsomal) stability assay. The note with it: pooled liver microsomes, pH 7.4. On the technique in general: Liver microsomes are a subcellular fraction often used to study metabolism.

A word on the half-life: it is the time needed for the level to fall by half in the phase considered. Low readings indicate fast loss, high ones slow loss. Turning to `Nc1nc2c(-c3c(Cl)cc4c(N5CCCC6(CN(C(=O)n7cncn7)C6)C5)nc(OC[C@@]56CCCN5C[C@H](F)C6)nc4c3F)ccc(F)c2s1` [Compound A136, (6-(7-(2-amino-7-fluorobenzo-[d]thiazol-4-yl)-6-chloro-8-fluoro-2-(((2R,7aS)-2-fluoro-tetrahydro-1H-pyrrolizin-7a(5H)-yl)methoxy)quinazolin-4-yl)-2,6-diazaspiro[3.5]nonan-2-yl)(1H-1,2,4-triazol-1-yl)-methanone], the half-life at 0.5 μM was more than 10 min. Under `N#Cc1c(N)sc2c(F)ccc(-c3c(Cl)cc4c(N5CCN(CC6CC6)C6(CN(C(=O)n7cncn7)C6)C5)nc(OC[C@@]56CCCN5C[C@H](F)C6)nc4c3F)c12` [Compound A139, 2-amino-4-(6-chloro-4-(5-(cyclopropylmethyl)-2-(1H-1,2,4-triazole-1-carbonyl)-2,5,8-triazaspiro[3.5]nonan-8-yl)-8-fluoro-2-(((2R,7aS)-2-fluoro-tetrahydro-1H-pyrrolizin-7a(5H)-yl)methoxy)quinazolin-7-yl)-7-fluorobenzo[b]thiophene-3-carbonitrile] stands more than 10 min; under `N#Cc1c(N)sc2c(F)ccc(-c3c(Cl)cc4c(N5CC6(CN(C(=O)n7cncn7)CCO6)C5)nc(OC[C@@]56CCCN5C[C@H](F)C6)nc4c3F)c12` [Compound A140, 4-(4-(8-(1H-1,2,4-triazole-1-carbonyl)-5-oxa-2,8-diaza-spiro[3.5]nonan-2-yl)-6-chloro-8-fluoro-2-(((2R,7aS)-2-fluoro-tetrahydro-1H-pyrrolizin-7a(5H)-yl)methoxy)quinazolin-7-yl)-2-amino-7-fluorobenzo-[b]thiophene-3-carbonitrile], more than 10 min. The figure for `N#CC[C@H]1CN(c2nc(OC[C@@]34CCCN3C[C@H](F)C4)nc3c(F)c(-c4ccc(F)c5sc(N)nc45)c(Cl)cc23)CCN1C(=O)n1cncn1` [Compound A145, 2-((2S)-4-(7-(2-amino-7-fluorobenzo[d]thiazol-4-yl)-6-chloro-8-fluoro-2-(((2R,7aS)-2-fluorotetrahydro-1H-pyrrolizin-7a(5H)-yl)methoxy)quinazolin-4-yl)-1-(1H-1,2,4-triazole-1-carbonyl)piperazin-2-yl)aceto-nitrile] is more than 10 min. Compound `Nc1nc2c(-c3c(Cl)cc4c(N5CCN(C(=O)n6cncn6)CC5)nc(OC[C@@]56CCCN5C[C@H](F)C6)nc4c3F)ccc(F)c2s1` [Compound A146, (4-(7-(2-amino-7-fluorobenzo-[d]thiazol-4-yl)-6-chloro-8-fluoro-2-(((2R,7aS)-2-fluoro-tetrahydro-1H-pyrrolizin-7a(5H)-yl)methoxy)quinazolin-4-yl)piperazin-1-yl)(1H-1,2,4-triazol-1-yl)methanone] registered a half-life at 0.5 μM of more than 10 min. `Cc1ncn(C(=O)N2CCCC(Oc3nc(OC[C@@]45CCCN4C[C@H](F)C5)nc4c(F)c(-c5ccc(F)c6sc(N)c(C#N)c56)c(Cl)cc34)CC2)n1` (stereo partly drawn) [Compound A174, 2-amino-4-(6-chloro-8-fluoro-2-(((2R,7aS)-2-fluorotetra-hydro-1H-pyrrolizin-7a(5H)-yl)methoxy)-4-((1-(3-methyl-1H-1,2,4-triazole-1-carbonyl)-azepan-4-yl)oxy)quinazolin-7-yl)-7-fluorobenzo[b]thiophene-3-carbonitrile] showed a half-life at 0.5 μM of more than 10 min. Under `N#Cc1c(N)sc2c(F)ccc(-c3c(Cl)cc4c(N5CCC6CN(C(=O)n7cncn7)CC65)nc(OC[C@@]56CCCN5C[C@H](F)C6)nc4c3F)c12` (stereo partly drawn) [Compound A178, 4-(4-(5-(1H-1,2,4-triazole-1-carbonyl)hexahydropyrrolo[3,4-b]pyrrol-1(2H)-yl)-6-chloro-8-fluoro-2-(((2R,7aS)-2-fluoro-tetrahydro-1H-pyrrolizin-7a(5H)-yl)methoxy)quinazolin-7-yl)-2-amino-7-fluorobenzo-[b]thiophene-3-carbonitrile] stands more than 10 min. Under `N#Cc1c(N)sc2c(F)ccc(-c3c(Cl)cc4c(N5CCC6C5CCCN6C(=O)n5cncn5)nc(OC[C@@]56CCCN5C[C@H](F)C6)nc4c3F)c12` (stereo partly drawn) [Compound A181, 4-(4-(4-(1H-1,2,4-triazole-1-carbonyl)octahydro-1H-pyrrolo[3,2-b]pyridin-1-yl)-6-chloro-8-fluoro-2-(((2R,7aS)-2-fluorotetrahydro-1H-pyrrol-izin-7a(5H)-yl)methoxy)quin-azolin-7-yl)-2-amino-7-fluoro-benzo[b]thiophene-3-carbonitrile] stands more than 10 min; under `Nc1nc2c(-c3c(Cl)cc4c(N5CCC6(CN(C(=O)n7cncn7)C6)C5)nc(OC[C@@]56CCCN5C[C@H](F)C6)nc4c3F)ccc(F)c2s1` [Compound A201, (6-(7-(2-amino-7-fluorobenzo-[d]thiazol-4-yl)-6-chloro-8-fluoro-2-(((2R,7aS)-2-fluoro-tetrahydro-1H-pyrrolizin-7a(5H)-yl)methoxy)quinazolin-4-yl)-2,6-diazaspiro[3.4]octan-2-yl)(1H-1,2,4-triazol-1-yl)-methanone], more than 10 min; under `C[C@@H]1CN(C(=O)n2cncn2)[C@@H](C)CN1c1nc(OC[C@@]23CCCN2C[C@H](F)C3)nc2c(F)c(-c3ccc(F)c4sc(N)nc34)c(Cl)cc12` [Compound A244, ((2S,5R)-4-(7-(2-amino-7-fluorobenzo[d]thiazol-4-yl)-6-chloro-8-fluoro-2-(((2R,7aS)-2-fluorotetrahydro-1H-pyrrolizin-7a(5H)-yl)methoxy)quinazolin-4-yl)-2,5-dimethylpiperazin-1-yl)(1H-1,2,4-triazol-1-yl)meth-anone], more than 10 min. Under `Nc1nc2c(-c3c(Cl)cc4c(N5CC6(CN(C(=O)n7cncn7)CCO6)C5)nc(OC[C@@]56CCCN5C[C@H](F)C6)nc4c3F)ccc(F)c2s1` [Compound A268, (2-(7-(2-amino-7-fluorobenzo-[d]thiazol-4-yl)-6-chloro-8-fluoro-2-(((2R,7aS)-2-fluoro-tetrahydro-1H-pyrrolizin-7a(5H)-yl)methoxy)quinazolin-4-yl)-5-oxa-2,8-diazaspiro[3.5]-nonan-8-yl)(1H-1,2,4-triazol-1-yl)methanone] stands more than 10 min; under `Nc1nc2c(-c3c(Cl)cc4c(N5CCOC6(CN(C(=O)n7cncn7)C6)C5)nc(OC[C@@]56CCCN5C[C@H](F)C6)nc4c3F)ccc(F)c2s1` [Compound A273, (8-(7-(2-amino-7-fluorobenzo-[d]thiazol-4-yl)-6-chloro-8-fluoro-2-(((2R,7aS)-2-fluoro-tetrahydro-1H-pyrrolizin-7a(5H)-yl)methoxy)quinazolin-4-yl)-5-oxa-2,8-diazaspiro[3.5]-nonan-2-yl)(1H-1,2,4-triazol-1-yl)methanone], more than 10 min. For `N#Cc1c(N)sc2c(F)ccc(-c3c(Cl)cc4c(N5CCC6(CN(C(=O)n7cncn7)C6)C5)nc(OC[C@@]56CCCN5C[C@H](F)C6)nc4c3F)c12` [Compound A277, 4-(4-(2-(1H-1,2,4-triazole-1-carbonyl)-2,6-diazaspiro[3.4]-octan-6-yl)-6-chloro-8-fluoro-2-(((2R,7aS)-2-fluorotetrahydro-1H-pyrrolizin-7a(5H)-yl)meth-oxy)quinazolin-7-yl)-2-amino-7-fluorobenzo[b]thiophene-3-carbonitrile], the half-life at 0.5 μM was more than 10 min.
